Each structure is given as a SMILES string. In brackets after ≈: the same amount, converted by molar mass. Some results are limits rather than exact numbers.

Test [1] concerns Bacillus cereus (ATCC 11778). Kind of test: MIC, NCCLS broth microdilution assay. It is filed as cell-based. The settings on record: A = B. cereus ATCC 11778. The method in brief: (§1)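 MICs were determined by broth microdilution following NCCLS documents M7-A4, M11-A4 and M27-T. The antifungal assay followed the method in the Manual of Clinical Microbiology (1995).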
In general terms: Dilution methods test growth across graded concentrations, often in twofold steps.

Test [2] has as its system Enterococcus faecium (ATCC 51559, a vancomycin resistant strain (VRE)). Kind of test: MIC, NCCLS broth microdilution assay. The class given is cell-based. To be noted: D = E. faecium ATCC 51559. The method in brief: as §1
In test [3] the test system is Staphylococcus aureus (ATCC 13709, a methicillin sensitive strain (MSSA)). The test is described as follows: MIC, NCCLS broth microdilution assay. The class given is cell-based. The settings on record: E = S. aureus ATCC 13709. Summed up:
as §1

Test [4] relates to Staphylococcus aureus (ATCC 27660, a methicillin resistant strain (MRSA)). The test is described as follows: MIC, NCCLS broth microdilution assay. The class given is cell-based. To be noted: F = S. aureus ATCC 27660. The method in brief: as §1
Test [5] deals with Staphylococcus epidermidis (ATCC 12228). The test is described as follows: MIC, NCCLS broth microdilution assay. It is filed as cell-based. The settings on record: G = S. epidermidis ATCC 12228. Summed up:
as §1

Test [6] deals with Streptococcus pneumoniae (ATCC 51422, a penicillin resistant strain (PRSP)). The test is described as follows: MIC, NCCLS broth microdilution assay. The class given is cell-based. The settings on record: I = S. pneumoniae ATCC 51422. The method in brief: as §1
Test [7] deals with Candida albicans (ATCC 38247). Kind of test: Antifungal MIC assay. The settings on record: B = C. albicans ATCC 38247. It is filed as cell-based. The method in brief: as §1
Test [8] concerns the target dsDNA target sequence AATACT (310 bp fragment, Plasmid A). Kind of test: Quantitative DNase I footprint titration, dsDNA binding. The settings on record: 310 bp/A, 22° C., pH 7.0, read-out: Dissociation Constant Kd.
Test [9] has as its target dsDNA target sequence AATTAATCAT (352 bp fragment, Plasmid B). The description is as above. To be noted: 352 bp/B, 22° C., pH 7.0, read-out: Dissociation Constant Kd.
The subject of the next test is E. faecalis ATCC 29212. Kind of test: MIC, NCCLS broth microdilution assay. To be noted: C = E. faecalis ATCC 29212. It is filed as cell-based, Enterococcus faecalis. Summed up:
(§2)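 Broth microdilution per NCCLS M7-A4 (1997) guidelines; MIC recorded as minimal inhibitory concentration.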

In the next test the test system is S. pneumoniae ATCC 49619. The test is described as follows: MIC, NCCLS broth microdilution assay. It is filed as cell-based, Streptococcus pneumoniae. The settings on record: H = S. pneumoniae ATCC 49619. The method in brief: as §2
Test [10] has as its system methicillin resistant Staphylococcus aureus ATCC 33591. The test is described as follows: Murine neutropenic thigh model. The settings on record: neutropenic female CF1 mice, 6 hr after treatment. The class given is in vivo. As for the experimental part:
A S. aureus ATCC 33591 culture was grown to log phase overnight and diluted in phosphate buffered saline (pH 7.2) to an optical density of about 0.1 at 600 nm, giving an approximate concentration of 10^8 cfu/mL. The suspension was diluted 1:100 in phosphate buffered saline (pH 7.2) for a final concentration of 10^6 cfu/mL.
Outbred female CF1 mice (approx. 20 gram body weight) were rendered neutropenic by treatment with cyclophosphamide (200 mg/kg body weight, intraperitoneal injection) at 2 and 4 days prior to inoculation. Groups of 5 mice were inoculated with 0.05 mL of the bacteria (approx. 10^6 cfu/mL) into the anterior thigh. Each group was treated intravenously two hours post infection with vehicle (phosphate buffered saline) or test compound. The mice were sacrificed at either 6 or 24 hrs after treatment and thighs were collected aseptically. Each thigh was weighed, placed into sterile saline, and homogenized. The tissue homogenates were diluted appropriately for plating on agar plates. Colony counts were recorded (cfu/gram) and compared to control groups.
In vivo efficacy was shown by a decrease in colony count (log cfu/gram of tissue) in the compound-treated animals when compared against the colony count in animals given only the vehicle.

The mark [11] stands for this setting: Staphylococcus aureus, read-out: Minimum Inhibitory Concentration (MIC).
Setting [12] is: 25 mg/kg intravenously two hours post infection.
Setting [13] is: 50 mg/kg intravenously two hours post infection.

As a reminder, the Kd is the equilibrium constant for the complex coming apart. Turning to `Cn1cc(NC(=O)c2cc(NC(=O)c3cc(NC(=O)c4ccc(Cl)cc4F)c[nH]3)cn2C)cc1C(=O)NCCN1CCOCC1` [Compound A-3], the MIC in [1] (Bacillus cereus, ATCC11778, read-out: Minimum Inhibitory Concentration (MIC)) was at most 4 µg/mL; in [2] (Enterococcus faecium, read-out: Minimum Inhibitory Concentration (MIC)) it was at most 4 µg/mL; in [3] (setting [11]), at most 4 µg/mL; in test [4] (setting [11]), at most 4 µg/mL; in test [5] (Staphylococcus epidermidis, ATCC12228, read-out: Minimum Inhibitory Concentration (MIC)), at most 4 µg/mL; in [6] (Streptococcus pneumoniae, read-out: Minimum Inhibitory Concentration (MIC)), at most 4 µg/mL. Moreover, the MIC in test [7] (Candida albicans, ATCC38247, read-out: Minimum Inhibitory Concentration (MIC)) is 12 to 32 µg/mL (≈ 18.8 to 50.1 µM); with E. faecalis ATCC 29212 (Enterococcus faecalis, ATCC29212, read-out: Minimum Inhibitory Concentration (MIC)), at most 4 µg/mL; in the test on S. pneumoniae ATCC 49619 (Streptococcus pneumoniae, ATCC49619, read-out: Minimum Inhibitory Concentration (MIC)), at most 4 µg/mL. Also, the Kd in [8] was determined as 5 nM; in [9] it was 1 nM.
`Cn1cc(NC(=O)c2cc(NC(=O)c3cc(NC(=O)c4ccc(F)cc4F)c[nH]3)cn2C)cc1C(=O)NCCN1CCC(O)CC1` [Compound A-8]: the “Minimum Inhibitory Concentration (MIC)” value in test [1], in test [2], in test [3], in test [4], in [5] and in test [6] was “+++ (+++ = MIC ≦ 4)” throughout. The results for the “Minimum Inhibitory Concentration (MIC)” value (in [7]; in the test on E. faecalis ATCC 29212; in the test with S. pneumoniae ATCC 49619) were “+ (+ = 12 ≦ MIC ≦ 32)”, “+++ (+++ = MIC ≦ 4)” and “+++ (+++ = MIC ≦ 4)”, respectively. Further, the “Colony Count (log cfu/gram) Compound” value turned out to be 5.85 log cfu/gram in test [10] (setting [12]) and 4.45 log cfu/gram in [10] (setting [13]).
Regarding `Cn1cc(NC(=O)c2cc(NC(=O)c3cc(NC(=O)c4ccc(F)cc4F)c[nH]3)cn2C)cc1C(=O)NCCN1CCCC1` [Compound A-9], the “Minimum Inhibitory Concentration (MIC)” value in [1], in test [2], in test [3], in test [4], in test [5] and in test [6] was “+++ (+++ = MIC ≦ 4)” in each case. Besides, the “Minimum Inhibitory Concentration (MIC)” value in test [7] was “+ (+ = 12 ≦ MIC ≦ 32)”; in the test on E. faecalis ATCC 29212, “+++ (+++ = MIC ≦ 4)”; in the test with S. pneumoniae ATCC 49619 it was “+ (+ = 12 ≦ MIC ≦ 32)”. For the same compound, the “Colony Count (log cfu/gram) Compound” value in test [10] (setting [12]) was found to be 7.11 log cfu/gram; in [10] (setting [13]), 5.11 log cfu/gram.
For `Cn1cc(NC(=O)c2cc(NC(=O)c3cc(NC(=O)c4ccc(F)cc4F)cn3C)cn2C)cc1C(=O)NCCN1CCCCC1` [Compound B-6], the “Minimum Inhibitory Concentration (MIC)” value in test [1], in [2], in test [3], in [4], in [5] and in test [6] was “+++ (+++ = MIC ≦ 4)” throughout. Further, the “Minimum Inhibitory Concentration (MIC)” value in test [7] is over 32 µg/mL; in the test on E. faecalis ATCC 29212, “+++ (+++ = MIC ≦ 4)”; in the test on S. pneumoniae ATCC 49619, “+++ (+++ = MIC ≦ 4)”. The “Colony Count (log cfu/gram) Compound” value in test [10] (setting [13]) is 6.37 log cfu/gram.
Take `Cn1cc(NC(=O)c2cc(NC(=O)c3cc(NC(=O)c4ccc(F)cc4F)cn3C)cn2C)cc1C(=O)NCCN1CCCCCC1` [Compound B-18]: the “Minimum Inhibitory Concentration (MIC)” value in [1], in test [2], in test [3], in test [4], in test [5] and in [6] was “+++ (+++ = MIC ≦ 4)” each time. The results for the “Minimum Inhibitory Concentration (MIC)” value (in test [7]; with E. faecalis ATCC 29212; in the test on S. pneumoniae ATCC 49619) were “++ (++ = 4 < MIC < 12)”, “+++ (+++ = MIC ≦ 4)” and “+++ (+++ = MIC ≦ 4)”, respectively. Further, the Kd in test [9] stood at 2 nM.
In the case of `Cc1cc(NC(=O)c2cc(NC(=O)c3cc(NC(=O)c4ccc(F)cc4F)cn3C)cn2CCCN(C)C)sn1` [Compound D-3], the “Minimum Inhibitory Concentration (MIC)” value in [1] is recorded as “+++ (+++ = MIC ≦ 4)”; in test [2] it was “+ (+ = 12 ≦ MIC ≦ 32)”; in [3] it was “+++ (+++ = MIC ≦ 4)”; in test [4] it was “+++ (+++ = MIC ≦ 4)”; in test [5] it was “+++ (+++ = MIC ≦ 4)”; in test [6] it was “+++ (+++ = MIC ≦ 4)”. The “Minimum Inhibitory Concentration (MIC)” value (in test [7]; in the test on E. faecalis ATCC 29212; with S. pneumoniae ATCC 49619) was “+++ (+++ = MIC ≦ 4)” throughout. In addition, the “Colony Count (log cfu/gram) Compound” value in test [10] (setting [13]) was 6.28 log cfu/gram.
Consider `Cc1cc(NC(=O)c2cc(NC(=O)c3cc(NC(=O)c4ccc(Cl)cc4F)c[nH]3)cn2CCCN(C)C)sn1` [Compound D-11], for which the “Minimum Inhibitory Concentration (MIC)” value in test [1], in test [2], in [3], in test [4], in [5] and in test [6] was “+++ (+++ = MIC ≦ 4)” in each case. Further, the “Minimum Inhibitory Concentration (MIC)” value (in test [7]; in the test with E. faecalis ATCC 29212; in the test on S. pneumoniae ATCC 49619) was “+++ (+++ = MIC ≦ 4)” throughout. Also, in test [10] (setting [13]), the “Colony Count (log cfu/gram) Compound” value turned out to be 6.25 log cfu/gram.

These data come from patent US7348427B2, “Antipathogenic benzamide compounds” (Genesoft Pharmaceuticals, Inc., priority 2001, dated 2008).
